According to patent US7868135B2, “Compositions of lipopeptide antibiotic derivatives and methods of use thereof” (priority 2003, dated 2011):
Marks after values point to notes of the source that are not given here. Starred links: 1 amine or outer side, 2 acyl side, 3 side chain; linkers in the order of their positions; H or OH if unused. Positions of bridges follow the written chain, without caps; N, C: chain ends. Non-standard residues stand in square brackets, D forms with d. Residues, ends and D or L forms follow the SMILES beside them. ξ: configuration not given here. *: point of attachment. Hexadecanesulfonyl = CCCCCCCCCCCCCCCCS(=O)(=O)*; ξAbu(βξ-NH2) = CC(N[*:3])C(N[*:1])C(=O)[*:2]; ξAsp(βξ-Me) = CC(C(=O)O)C(N)C(=O)O; ξAbu(3ξ-NH2) = CC(N)C(N)C(=O)O; Lauroyl = CCCCCCCCCCCC(=O)*; 12Ado = NCCCCCCCCCCCC(=O)O; 4Abz = Nc1ccc(C(=O)O)cc1; Pip = O=C(O)[CH]1CCCCN1

Each molecule was assayed on Staphylococcus aureus (MSSA). Settings: 24 h.
Procedure, shortened: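 Broth microdilution MIC per NCCLS M7-A6 with doubling serial dilutions, in cation-adjusted Mueller-Hinton broth supplemented with 0.625 mM calcium.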
`CCCCCCCCCCCC(=O)Nc1ccc(C(=O)NCC(=O)NC(CC(=O)O)C(=O)NC2C(=O)N3CCCCC3C(=O)NC(C(C)C(=O)O)C(=O)NC(CC(=O)O)C(=O)NCC(=O)NC(CC(=O)O)C(=O)NCC(=O)NC(C(C)N)C(=O)NC(C(C)C)C(=O)N3CCCC3C(=O)NC2C)cc1` (stereo not drawn) [Compound 123, C12-PABA-Gly-Amphomycin] ({Lauroyl-4Abz}-GD[ξAbu(βξ-NH2)][Pip][ξAsp(βξ-Me)]DGDG[ξAbu(3ξ-NH2)]VP; lactam 3-C; configuration not given here) gave an MIC of 1 µg/mL. `CCCCCCCCCCCCCCC(=O)NC(CC(=O)O)C(=O)NC1C(=O)N2CCCCC2C(=O)NC(C(C)C(=O)O)C(=O)NC(CC(=O)O)C(=O)NCC(=O)NC(CC(=O)O)C(=O)NCC(=O)NC(C(C)NC(=O)CNC(=O)CCCN)C(=O)NC(C(C)C)C(=O)N2CCCC2C(=O)NC1C` (centres unmarked) [Compound 68, C15-Amphomycin-9-Gly-GABA] showed an MIC of 2 µg/mL. In the case of `CCCCCCCCCCCCCCNC(=O)NCCCC(=O)NC(CC(=O)O)C(=O)NC1C(=O)N2CCCCC2C(=O)NC(C(C)C(=O)O)C(=O)NC(CC(=O)O)C(=O)NCC(=O)NC(CC(=O)O)C(=O)NCC(=O)NC(C(C)N)C(=O)NC(C(C)C)C(=O)N2CCCC2C(=O)NC1C` (centres unmarked) [Compound 291, CH3—(CH2)13—NH—C(═O)-(GABA)-Amphomycin], the MIC was 2 µg/mL. `CCCCCCCCCCCCCCNC(=O)NC(CC(=O)O)C(=O)NC1C(=O)N2CCCCC2C(=O)NC(C(C)C(=O)O)C(=O)NC(CC(=O)O)C(=O)NCC(=O)NC(CC(=O)O)C(=O)NCC(=O)NC(C(C)NC(=O)CNC(=O)[C@@H](N)CCCCN)C(=O)NC(C(C)C)C(=O)N2CCCC2C(=O)NC1C` (some centres unmarked) [Compound 277, CH3—(CH2)13—NH—C(═O)-Amphomycin-9-Gly-Lys] showed an MIC of 0.5 to 1 µg/mL. Work on `CCCCCCCCCCCCCCCCS(=O)(=O)NCC(=O)NC(CC(=O)O)C(=O)NC1C(=O)N2CCCCC2C(=O)NC(C(C)C(=O)O)C(=O)NC(CC(=O)O)C(=O)NCC(=O)NC(CC(=O)O)C(=O)NCC(=O)NC(C(C)N)C(=O)NC(C(C)C)C(=O)N2CCCC2C(=O)NC1C` (stereo not drawn) [Compound 99, CH3—(CH2)15—SO2-Gly-Amphomycin] (Hexadecanesulfonyl-GD[ξAbu(βξ-NH2)][Pip][ξAsp(βξ-Me)]DGDG[ξAbu(3ξ-NH2)]VP; lactam 3-C; configuration not given here) yielded an MIC of 0.5 to 1 µg/mL. `CC(C)C1NC(=O)C(C(C)N)NC(=O)CNC(=O)C(CC(=O)O)NC(=O)CNC(=O)C(CC(=O)O)NC(=O)C(C(C)C(=O)O)NC(=O)C2CCCCN2C(=O)C(NC(=O)C(CC(=O)O)NC(=O)CCCCCCCCCCCN)C(C)NC(=O)C2CCCN2C1=O` (stereo not drawn) [Compound 375, (12-Aminododecoyl)-Amphomycin] (H-[12Ado]D[ξAbu(βξ-NH2)][Pip][ξAsp(βξ-Me)]DGDG[ξAbu(3ξ-NH2)]VP; lactam 3-C; configuration not given here) showed an MIC greater than 64 µg/mL. Work on `CCCCCCCCCCCCCCC(=O)NC(CC(=O)O)C(=O)NC1C(=O)N2CCCCC2C(=O)NC(C(C)C(=O)O)C(=O)NC(CC(=O)O)C(=O)NCC(=O)NC(CC(=O)O)C(=O)NCC(=O)NC(C(C)NC(=O)[C@@H](N)CCCNC(N)=O)C(=O)NC(C(C)C)C(=O)N2CCCC2C(=O)NC1C` (some centres unmarked) [Compound 165, C15-Amphomycin-9-Cit] yielded an MIC of 4 µg/mL. `CCCCCCCCCCCCCCC(=O)NC(CC(=O)O)C(=O)NC1C(=O)N2CCCCC2C(=O)NC(C(C)C(=O)O)C(=O)NC(CC(=O)O)C(=O)NCC(=O)NC(CC(=O)O)C(=O)NCC(=O)NC(C(C)NC(=O)CCCCCCC)C(=O)NC(C(C)C)C(=O)N2CCCC2C(=O)NC1C` (centres unmarked) [Compound 205, C15-Amphomycin-9-C8] was tested, and the MIC was 16 µg/mL.

Same assay, conditions: S. aureus (MSSA), CAMHB supplemented with 0.625 mM calcium, 24 hours at about 37° C.; a range = compound tested multiple times
“β-Isomer of CH3—(CH2)13—NH—C(═O)-Amphomycin [Compound 329]” was tested, and the MIC was 4^† μg/mL. In the case of `CCCCCCCCCCCCCC(=O)NC(CC(=O)O)C(=O)NC1C(=O)N2CCCCC2C(=O)NC(C(C)C(=O)O)C(=O)NC(CC(=O)O)C(=O)NCC(=O)NC(CC(=O)O)C(=O)NCC(=O)NC(C(C)NC(=O)[C@@H](N)CCCN)C(=O)NC(C(C)C)C(=O)N2CCCC2C(=O)NC1C` (some centres unmarked) [Compound 127, C14-Amphomycin-9-Orn], the MIC was 127/4 μg/mL. Molecule “CH3—(CH2)15—NH—C(═O)-(p-Phenylacetyl)-Amphomycin [Compound 287]” has an MIC of 4 µg/mL.
